Test results: patent US12600732B2, “Bifunctional compounds for degrading BTK via ubiquitin proteosome pathway” (NURIX THERAPEUTICS, INC., priority 2019, dated 2026)
Like-named read-outs stand apart in the source and are kept apart here.

Key:
[1] = PK data for BTK CTMs (in vivo plasma concentrations); details: for Vd: read-out: Volume of Distribution
Excerpt: The present example evaluates in vivo plasma concentrations of BTK CTMs to develop PK-PD-efficacy relationship and predict human exposure.

Aiolos = experiment: Non-human primate (cyno) DRF PD, Aiolos remaining in T cells; type: in vivo; details: for % Aiolos Remaining in T cells: blood, 24 h after previous dose
Experimental: (§1) This example evaluates potency and tolerability of BTK CTMs following multiple, consecutive days of dosing and examines potency of compounds for BTK and Aiolos degradation. The data in the table below is from a study in which animals were dosed daily with the designated oral dose. Analysis for BTK and Aiolos levels was performed twenty-four hours following the previous dose.

BTK [2] = experiment: Non-human primate (cyno) DRF PD, BTK remaining in B cells; type: in vivo; details: blood, 24 h after previous dose
Experimental: as §1

[3] = Compound plasma exposure in cyno DRF study; type: in vivo; details: cynomolgus monkey, po
Experimental: This example evaluates compound plasma concentration which results in in vivo BTK and/or Aiolos degradation in cyno. The data in the table below is from a study in which animals were dosed daily with the designated oral dose. Analysis for compound concentration in plasma was performed twenty-four hours following the previous dose.

BTK [4] = molecular target: BTK (Homo sapiens, UniProt Q06187); experiment: BTK degradation in human PBMCs (BTK flow cytometry), primary human B cells; type: cell-based; set-up: endogenous in cells; host or cells: human PBMC (B cells) from healthy donors; details: treatment time 4 h
BTK (Homo sapiens, UniProt Q06187), sequence (Q06187 whole entry): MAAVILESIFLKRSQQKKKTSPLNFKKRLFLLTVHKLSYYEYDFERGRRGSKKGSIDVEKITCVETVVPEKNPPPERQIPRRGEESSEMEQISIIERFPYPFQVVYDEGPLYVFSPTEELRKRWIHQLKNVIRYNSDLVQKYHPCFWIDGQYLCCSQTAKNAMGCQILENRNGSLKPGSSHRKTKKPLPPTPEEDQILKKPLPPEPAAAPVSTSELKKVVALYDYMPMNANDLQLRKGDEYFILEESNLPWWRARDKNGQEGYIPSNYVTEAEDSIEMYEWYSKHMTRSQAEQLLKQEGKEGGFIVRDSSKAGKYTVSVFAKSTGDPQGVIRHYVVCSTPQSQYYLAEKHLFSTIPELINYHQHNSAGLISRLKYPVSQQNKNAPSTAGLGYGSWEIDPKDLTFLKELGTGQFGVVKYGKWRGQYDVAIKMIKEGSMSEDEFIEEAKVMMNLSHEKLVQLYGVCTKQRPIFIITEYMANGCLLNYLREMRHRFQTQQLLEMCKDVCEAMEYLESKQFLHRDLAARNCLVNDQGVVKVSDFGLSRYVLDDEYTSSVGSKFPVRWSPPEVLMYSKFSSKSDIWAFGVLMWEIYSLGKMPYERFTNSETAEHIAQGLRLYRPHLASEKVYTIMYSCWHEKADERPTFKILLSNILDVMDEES
Experimental: Human peripheral blood mononuclear cells (PBMC) were obtained either: 1) by using Ficoll-Paque™ (GE Healthcare) for separation of peripheral blood hematopoietic cells from buffy coats of healthy human donors; or 2) directly from LeukoPak donations. PBMCs were grown at 37° C. and 5% CO2 in RPMI supplemented with 10% heat-inactivated FBS (Corning Premium Fetal Bovine Serum from Fisher, MT35015CV), 1× Penicillin/Streptomycin, and 2 mM Glutamine.
BTK Degradation in Human PBMCs (BTK Flow Cytometry)
This example evaluates the potency of CTMs in primary human B cells, rather than transformed or immortalized cancer cell lines. Primary cells are believed to be a physiologically relevant model. Thus, this example confirms the potency, kinetics, and level of BTK degradation in these cells in addition to the cell line models. Furthermore, this assay establishes that it is possible to monitor BTK degradation in primary human B cells, which can serve as a clinical biomarker.

Rec-1 cells = experiment: Cell viability assay (CellTiter-Glo), Rec-1 cells; type: cell-based; details: for EC50: Homo sapiens, Rec1, treatment time 72 h; for EMAX (% viable cells): treatment time 72 h
Excerpt: This example evaluates effects of CTM-mediated degradation on cell viability. […] Mino and Rec-1 are models of Mantle Cell Lymphoma, which is sensitive to IMiDs.

[5] = test system: B cell receptor (BCR) signaling; experiment: B cell activation assay (flow cytometry), human B cells; type: cell-based; details: treatment 4 h, IgM stimulation 18 h
Experimental: Compound was present throughout the stimulation. Cells were stained with Live/Dead dye (Fisher L34976) and then fluorophore-conjugated antibodies against CD20 (Biolegend 302330), CD3 (BD Pharmingen 557705), CD86 (Biolegend 305416) and CD69 (Biolegend 310906). Stained cells were fixed in PFA and run on an Attune N×T Acoustic Focusing Flow Cytometer (Thermo-Fisher A29004), and data was analyzed using FlowJo (v10.5.3) and GraphPad Prism (v7.00) software. Single live lymphocytes were gated for B cells (CD20+CD3−) and T cells (CD3+CD20−), and the geometric mean fluorescence intensity (MFI) of CD86 and CD69 was calculated for each population. The MFI of the unstimulated sample was used to quantify baseline activation.
This example evaluates whether CTM treatment affects B cell receptor (BCR) signaling. BTK is activated downstream of the B cell receptor and leads to upregulation of activation markers CD86 and CD69 on the surface of B cells.

[6] = Monkey cynomolgus, 0.75 mg/kg IV
[7] = Rat Sprague-Dawley, 10 mg/kg PO
[8] = Rat Sprague-Dawley, 30 mg/kg PO
[9] = 10 mg/kg PO daily, 1 day of dosing
[10] = 10 mg/kg PO daily, 14 days of dosing
[11] = 30 mg/kg PO daily, 1 day of dosing
[12] = 30 mg/kg PO daily, 14 days of dosing
[13] = 100 mg/kg PO daily, 1 day of dosing
[14] = 100 mg/kg PO daily, 14 days of dosing
[15] = 10 mg/kg, 10 mg/kg PO, 1 day of dosing
[16] = 10 mg/kg, 10 mg/kg PO, 14 days of dosing
[17] = 30 mg/kg, 30 mg/kg PO, 1 day of dosing
[18] = 30 mg/kg, 30 mg/kg PO, 14 days of dosing
[19] = 100 mg/kg, 100 mg/kg PO, 1 day of dosing
[20] = 100 mg/kg, 100 mg/kg PO, 14 days of dosing

CN1CCN([C@H]2CCCN(c3cnc(C(N)=O)c(Nc4ccc(C5CCN(CC6CCN(c7ccc(C(=O)NC8CCC(=O)NC8=O)nc7)CC6)CC5)cc4)n3)C2)C1=O (stereo partly drawn) [Compound 130]
AUC ([1]; Dog Beagle, 1 mg/kg IV): 0.16 µM·h
clearance ([1]; Dog Beagle, 1 mg/kg IV): 118 mL/min/kg
Vd ([1]; Dog Beagle, 1 mg/kg IV): 56 L/kg
AUC ([1]; Dog Beagle, 10 mg/kg PO): 0.17 µM·h
bioavailability ([1]; Dog Beagle, 10 mg/kg PO): 10%
AUC ([1]; Dog Beagle, 30 mg/kg PO): 0.23 µM·h
AUC [1, 6]: 0.17 µM·h
clearance [1, 6]: 90.9 mL/min/kg
Vd [1, 6]: 16 L/kg
AUC ([1]; Monkey cynomolgus, 10 mg/kg PO): 0.028 µM·h
bioavailability ([1]; Monkey cynomolgus, 10 mg/kg PO): 1%
AUC ([1]; Monkey cynomolgus, 30 mg/kg PO): 0.45 µM·h
AUC ([1]; Mouse Balb/c, 1 mg/kg IV): 3.4 µM·h
clearance ([1]; Mouse Balb/c, 1 mg/kg IV): 6 mL/min/kg
Vd ([1]; Mouse Balb/c, 1 mg/kg IV): 0.72 L/kg
AUC ([1]; Mouse Balb/c, 10 mg/kg PO): 5.81 µM·h
bioavailability ([1]; Mouse Balb/c, 10 mg/kg PO): 17%
AUC ([1]; Mouse Balb/c, 30 mg/kg PO): 2.3 µM·h
AUC ([1]; Mouse CD-1, 1 mg/kg IV): 1.7 µM·h
clearance ([1]; Mouse CD-1, 1 mg/kg IV): 11.6 mL/min/kg
Vd ([1]; Mouse CD-1, 1 mg/kg IV): 1.4 L/kg
AUC ([1]; Mouse CD-1, 10 mg/kg PO): 5.2 µM·h
bioavailability ([1]; Mouse CD-1, 10 mg/kg PO): 33%
AUC ([1]; Rat Sprague-Dawley, 1 mg/kg IV): 0.18 µM·h
clearance ([1]; Rat Sprague-Dawley, 1 mg/kg IV): 99.5 mL/min/kg
Vd ([1]; Rat Sprague-Dawley, 1 mg/kg IV): 32 L/kg
AUC [1, 7]: 0.69 µM·h
bioavailability [1, 7]: 32%
AUC [1, 8]: 1.62 µM·h
bioavailability [1, 8]: 7%
% Aiolos Remaining in T cells (Aiolos; [9]): 102%
% Aiolos Remaining in T cells (Aiolos; [10]): 96%
% Aiolos Remaining in T cells (Aiolos; [11]): 98%
% Aiolos Remaining in T cells (Aiolos; [12]): 108%
% Aiolos Remaining in T cells (Aiolos; [13]): 106%
% Aiolos Remaining in T cells (Aiolos; [14]): 99%
% BTK Remaining in B cells (BTK [2]; [9]): 6%
% BTK Remaining in B cells (BTK [2]; [10]): 5%
% BTK Remaining in B cells (BTK [2]; [11]): 3%
% BTK Remaining in B cells (BTK [2]; [12]): 5%
% BTK Remaining in B cells (BTK [2]; [13]): 4%
% BTK Remaining in B cells (BTK [2]; [14]): 4%
Cmax [3, 15]: 20 nM
AUC [3, 16]: 0.387 µM·h
Cmax [3, 16]: 28 nM
Cmax [3, 17]: 55 nM
AUC [3, 18]: 0.844 µM·h
Cmax [3, 18]: 54 nM
AUC [3, 19]: 1.4 µM·h
Cmax [3, 20]: 177 nM
DC50 (BTK [4]): 0.13 nM
EC50 (Rec-1 cells): 155 nM
EMAX (% viable cells) (Rec-1 cells): 63%
EC50 ([5]; read-out: CD69 EC50): 0.4 nM
EC50 ([5]; read-out: CD86 EC50): 0.5 nM

NC(=O)c1ncc(N2CCCCC2)nc1Nc1ccc(C2CCN(C[C@@H]3CCN(c4ccc5c(c4)C(=O)N(C4CCC(=O)NC4=O)C5=O)C3)CC2)cc1 (stereo partly drawn) [Compound 149]
AUC ([1]; Dog Beagle, 1 mg/kg IV): 1.2 µM·h
clearance ([1]; Dog Beagle, 1 mg/kg IV): 18.4 mL/min/kg
Vd ([1]; Dog Beagle, 1 mg/kg IV): 7 L/kg
AUC ([1]; Dog Beagle, 10 mg/kg PO): 0.11 µM·h
bioavailability ([1]; Dog Beagle, 10 mg/kg PO): 0.9%
AUC ([1]; Monkey cynomolgus, 1 mg/kg IV): 1 µM·h
clearance ([1]; Monkey cynomolgus, 1 mg/kg IV): 22.2 mL/min/kg
Vd ([1]; Monkey cynomolgus, 1 mg/kg IV): 7.5 L/kg
AUC ([1]; Monkey cynomolgus, 10 mg/kg PO): 0.09 µM·h
bioavailability ([1]; Monkey cynomolgus, 10 mg/kg PO): 0.8%
AUC ([1]; Monkey cynomolgus, 30 mg/kg PO): 0.08 µM·h
AUC ([1]; Mouse Balb/c, 1 mg/kg IV): 4.5 µM·h
clearance ([1]; Mouse Balb/c, 1 mg/kg IV): 5.2 mL/min/kg
Vd ([1]; Mouse Balb/c, 1 mg/kg IV): 1 L/kg
AUC ([1]; Mouse Balb/c, 10 mg/kg PO): 16 µM·h
bioavailability ([1]; Mouse Balb/c, 10 mg/kg PO): 35%
AUC ([1]; Mouse Balb/c, 30 mg/kg PO): 27.7 µM·h
bioavailability ([1]; Mouse Balb/c, 30 mg/kg PO): 1%
AUC ([1]; Mouse Balb/c, 90 mg/kg PO): 37.5 µM·h
bioavailability ([1]; Mouse Balb/c, 90 mg/kg PO): 1%
AUC ([1]; Mouse CD-1, 1 mg/kg IV): 1.8 µM·h
clearance ([1]; Mouse CD-1, 1 mg/kg IV): 12.6 mL/min/kg
Vd ([1]; Mouse CD-1, 1 mg/kg IV): 1.5 L/kg
AUC ([1]; Mouse CD-1, 10 mg/kg PO): 11.5 µM·h
bioavailability ([1]; Mouse CD-1, 10 mg/kg PO): 64%
AUC ([1]; Rat Sprague-Dawley, 1 mg/kg IV): 1.2 µM·h
clearance ([1]; Rat Sprague-Dawley, 1 mg/kg IV): 19 mL/min/kg
Vd ([1]; Rat Sprague-Dawley, 1 mg/kg IV): 2.8 L/kg
AUC [1, 7]: 0.88 µM·h
bioavailability [1, 7]: 7%
Aiolos degradation (Aiolos; after fourteen days of dosing): demonstrated Aiolos degradation
% Aiolos Remaining in T cells (Aiolos; [9]): 79%
% Aiolos Remaining in T cells (Aiolos; [10]): 76%
% Aiolos Remaining in T cells (Aiolos; [11]): 74%
% Aiolos Remaining in T cells (Aiolos; [12]): 55%
% Aiolos Remaining in T cells (Aiolos; [13]): 77%
% Aiolos Remaining in T cells (Aiolos; [14]): 43%
% BTK Remaining in B cells (BTK [2]; [9]): 9%
% BTK Remaining in B cells (BTK [2]; [10]): 7%
% BTK Remaining in B cells (BTK [2]; [11]): 4%
% BTK Remaining in B cells (BTK [2]; [12]): 6%
% BTK Remaining in B cells (BTK [2]; [13]): 3%
% BTK Remaining in B cells (BTK [2]; [14]): 6%
Cmax [3, 15]: 42 nM
AUC [3, 16]: 0.763 µM·h
Cmax [3, 16]: 49 nM
Cmax [3, 17]: 51 nM
AUC [3, 18]: 1.48 µM·h
Cmax [3, 18]: 88 nM
AUC [3, 19]: 0.714 µM·h
Cmax [3, 20]: 159 nM
DC50 (BTK [4]): 1.9 nM
EC50 (Rec-1 cells): 0.17 nM
EMAX (% viable cells) (Rec-1 cells): 24%
EC50 ([5]; read-out: CD69 EC50): 4 nM
EC50 ([5]; read-out: CD86 EC50): 5 nM
